How the values were obtained:
mouse 11β-HSD1 = molecular target: T1, mouse 11β-HSD1 (Mus musculus, UniProt P50172); experiment: Enzyme activity analysis on mouse 11β-HSD1 (HTRF cortisol, liver microsomes); type: biochemical; conditions: second value of cell
T1 construct: 100 ug/ml human/mouse liver microsomes; from tissue; host or cells: mouse liver microsomes
Procedure, shortened: (§1)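 Cortisol generated by mouse or human liver microsome 11β-HSD1 during 2 h at 37° C., measured by HTRF competition (cryptate anti-cortisol antibody, d2-cortisol, 2 h room temperature) against a cortisol standard curve. IC50 from percent inhibition versus no-compound control.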

glucocorticoid receptor = molecular target: T2, glucocorticoid receptor (Homo sapiens, UniProt P04150); experiment: Competitive binding of glucocorticoid receptor (LanthaScreen TR-FRET); conditions: final concentration 10 uM
T2 construct: 4× GR-LBD up to 4 nM, and 4× Tb anti-GST Antibody up to 8 nM; purchased Invitrogen PV6040
T2 sequence (P04150 524-758 limits assumed): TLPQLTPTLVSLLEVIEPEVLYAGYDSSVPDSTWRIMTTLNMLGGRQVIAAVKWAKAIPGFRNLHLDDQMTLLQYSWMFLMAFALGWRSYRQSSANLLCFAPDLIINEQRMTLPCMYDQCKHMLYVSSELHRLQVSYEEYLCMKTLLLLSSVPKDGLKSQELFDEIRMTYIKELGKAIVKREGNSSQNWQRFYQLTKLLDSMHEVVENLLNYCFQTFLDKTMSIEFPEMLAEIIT
Experimental: In order to confirm the selective inhibitory ability of 11β-HSD1 inhibitor, competitive binding between 11β-HSD1 inhibitor and glucocorticoid ligand was tested by using LanthaScreen TR-FRET Glucocorticoid Receptor Competitive Binding Assay (Invitrogen, PV6040). The test material was dissolved in DMSO (Sigma, 276855) up to a 100× concentration of its final concentration (10 uM), and then Complete Nuclear Receptor Buffer F (1× stabilizing peptide, 5 mM DTT, Nuclear Receptor Buffer F) was used to dilute the test material up to a concentration of 2×, 4× Fluormone™ GS1 Green up to 20 nM, 4× GR-LBD up to 4 nM, and 4× Tb anti-GST Antibody up to 8 nM.
In order to obtain 60 μl of a final product through a reaction, on a 96-well plate, 2× test material 30 μl, 4× Fluormone™ GS1 Green 15 μl, and 4× GR-LBD/Tb anti-GST Antibody 15 μl were mixed, and reacted for 1 hour. In a positive control group, instead of the test material, Dexamethasone (Sigma, D1756), known as a ligand for glucocorticoid receptor, was used, and in a maximum active control group, DMSO was used, instead of the test material. In a negative control group, instead of the test material, DMSO was used, instead of Fluormone™ GS1 Green, Complete Nuclear Receptor Buffer F was used. On a 384-well white plate, 20 μl each was plated. By using Time-Resolved program in Flexstation3, a fluorescence value was read after excitation ([…]), emission (515 nM/486 nM), Delay time (100 μs), and Integration time (1500 μs) were programmed. By using the obtained value, a value of 515 nM/486 nM was calculated, from which the value in the negative control group was subtracted. The degree of binding of the test material to glucocorticoid receptor of was calculated by the active value of the test material with respect to the active value (100%) in the maximum active control group.

human 11β-HSD1 = molecular target: T3, human 11β-HSD1 (Homo sapiens, UniProt P28845); experiment: Enzyme activity analysis on human 11β-HSD1 (HTRF cortisol, liver microsomes); type: biochemical; conditions: first value of cell
T3 construct: 100 ug/ml human/mouse liver microsomes; from tissue; host or cells: human liver microsomes
T3 sequence (P28845 whole entry): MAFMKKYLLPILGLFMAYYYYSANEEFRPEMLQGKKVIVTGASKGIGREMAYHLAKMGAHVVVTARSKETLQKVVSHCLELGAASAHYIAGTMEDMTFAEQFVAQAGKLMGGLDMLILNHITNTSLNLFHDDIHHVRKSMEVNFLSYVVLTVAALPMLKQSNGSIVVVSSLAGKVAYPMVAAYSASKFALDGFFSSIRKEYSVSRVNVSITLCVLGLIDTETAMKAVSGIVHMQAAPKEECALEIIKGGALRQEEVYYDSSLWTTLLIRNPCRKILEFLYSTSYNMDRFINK
Procedure, shortened: as §1

human 11β-HSD2 = molecular target: T4, human 11β-HSD2 (Homo sapiens, UniProt P80365); experiment: 11b-HSD2 inhibition test in transfected CHO cells; type: cell-based; conditions: at a concentration of 10 uM; CHO cells expressing human 11β-HSD2; read-out: 11b-HSD2 inhibitory effect
T4 construct: host or cells: CHO cells
T4 sequence (P80365 1-405): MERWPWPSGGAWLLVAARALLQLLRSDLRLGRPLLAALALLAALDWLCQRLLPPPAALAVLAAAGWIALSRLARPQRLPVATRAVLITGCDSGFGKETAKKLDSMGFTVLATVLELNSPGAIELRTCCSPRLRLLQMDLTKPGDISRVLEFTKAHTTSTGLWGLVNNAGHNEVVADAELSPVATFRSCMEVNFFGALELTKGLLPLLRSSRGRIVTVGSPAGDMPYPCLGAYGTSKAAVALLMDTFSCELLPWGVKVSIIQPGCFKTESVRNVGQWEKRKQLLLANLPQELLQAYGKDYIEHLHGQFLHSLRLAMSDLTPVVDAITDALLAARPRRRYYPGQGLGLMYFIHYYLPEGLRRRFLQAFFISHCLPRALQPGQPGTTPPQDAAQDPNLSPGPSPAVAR
Experimental: CHO cells were plated on a 96 well plate with RPMI (Wellgene) medium (phenol red free) containing 100 μl of 10% FBS, 100 ug/ml of penicillin and 100 ug/ml of streptomycin (2×10^4 cells/well). CHO cells were transfected with plasmid (Origene, SC122552) (pCMV6-XL5 vector) expressing human 11β-HSD2 by using FuGENE6 reagent (Promega, E2311). 24 hours after transfection, the transfected cells were added with 50 nM of cortisol (Sigma) in the presence or absence of the compound at various concentrations. On the following day (24 hours later), the supernatant liquid was obtained, and through HTRF (Cisbio, 62CO2PEB) analysis, a competitive amount of cortisol was measured.

T1 sequence (P50172 whole entry): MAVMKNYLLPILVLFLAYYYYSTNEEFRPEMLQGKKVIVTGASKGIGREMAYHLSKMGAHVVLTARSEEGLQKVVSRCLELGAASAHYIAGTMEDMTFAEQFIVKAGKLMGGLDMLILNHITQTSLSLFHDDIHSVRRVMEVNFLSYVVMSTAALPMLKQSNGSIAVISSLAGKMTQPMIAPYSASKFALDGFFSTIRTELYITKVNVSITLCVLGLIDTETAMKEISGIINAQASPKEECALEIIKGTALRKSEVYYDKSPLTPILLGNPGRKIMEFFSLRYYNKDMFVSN

Molecule: CC(C)(NS(=O)(=O)c1ccccc1[N+](=O)[O-])C(=O)NC1C2CC3CC(C2)CC1C3 (stereo not drawn) [compound 43, N-(adamantane-2-yl)-2-methyl-2-(2-nitrophenylsulfonamido)propanamide]
- IC50 (mouse 11β-HSD1): 0.085 µM
- binding to glucocorticoid receptor (glucocorticoid receptor): did not bind to glucocorticoid receptor
- IC50 (human 11β-HSD1): 0.016 µM

Molecule: CC(C)(NS(=O)(=O)c1ccccc1Cl)C(=O)NC1C2CC3CC1CC(C(N)=O)(C3)C2 (stereo not drawn) [compound 83, N-4-(2-(2-chlorophenylsulfonamido)-2-methylpropanamido)adamantane-1-carboxyamide]
- IC50 (mouse 11β-HSD1): 0.018 µM
- binding to glucocorticoid receptor (glucocorticoid receptor): did not bind to glucocorticoid receptor
- IC50 (human 11β-HSD1): 0.009 µM

Molecule: CC(C)(NS(=O)(=O)c1ccccc1Br)C(=O)NC1C2CC3CC1CC(C(N)=O)(C3)C2 (stereo not drawn) [compound 84, N-4-(2-(2-bromophenylsulfonamido)-2-methylpropanamido)adamantane-1-carboxyamide]
- IC50 (mouse 11β-HSD1): 0.008 µM
- binding to glucocorticoid receptor (glucocorticoid receptor): did not bind to glucocorticoid receptor
- IC50 (human 11β-HSD1): 0.011 µM

Molecule: CC(C)(NS(=O)(=O)c1ccccc1F)C(=O)NC1C2CC3CC1CC(C(N)=O)(C3)C2 (stereo not drawn) [compound 85, N-4-(2-(2-fluorophenylsulfonamido)-2-methylpropanamido)adamantane-1-carboxyamide]
- binding to glucocorticoid receptor (glucocorticoid receptor): did not bind to glucocorticoid receptor
- IC50 (human 11β-HSD1): 0.039 µM

Molecule: CC(C)(NS(=O)(=O)c1cccc(Cl)c1Cl)C(=O)NC1C2CC3CC1CC(C(N)=O)(C3)C2 (stereo not drawn) [compound 87, N-4-(2-(2,3-dichlorophenylsulfonamido)-2-methylpropanamido)adamantane-1-carboxyamide]
- IC50 (mouse 11β-HSD1): 0.007 µM
- binding to glucocorticoid receptor (glucocorticoid receptor): did not bind to glucocorticoid receptor
- IC50 (human 11β-HSD1): 0.005 µM

Molecule: CC(C)(NS(=O)(=O)c1c(F)cccc1F)C(=O)NC1C2CC3CC1CC(C(N)=O)(C3)C2 (stereo not drawn) [compound 89, N-4-(2-(2,6-difluorophenylsulfonamido)-2-methylpropanamido)adamantane-1-carboxyamide]
- binding to glucocorticoid receptor (glucocorticoid receptor): did not bind to glucocorticoid receptor

Molecule: CC(C)(NS(=O)(=O)c1ccccc1OC(F)(F)F)C(=O)NC1C2CC3CC1CC(C(N)=O)(C3)C2 (stereo not drawn) [compound 90, N-4-(2-(2-trifluoromethoxyphenylsulfonamido)-2-methylpropanamido)adamantane-1-carboxyamide]
- IC50 (mouse 11β-HSD1): 0.03 µM
- binding to glucocorticoid receptor (glucocorticoid receptor): did not bind to glucocorticoid receptor
- IC50 (human 11β-HSD1): 0.017 µM

Molecule: Cc1c(Cl)cccc1S(=O)(=O)NC(C)(C)C(=O)NC1C2CC3CC1CC(C(N)=O)(C3)C2 (stereo not drawn) [compound 97, N-4-(2-(2-methyl-3-chlorophenylsulfonamido)-2-methylpropanamido)adamantane-1-carboxyamide]
- IC50 (mouse 11β-HSD1): 0.01 µM
- binding to glucocorticoid receptor (glucocorticoid receptor): did not bind to glucocorticoid receptor
- IC50 (human 11β-HSD1): 0.005 µM

Molecule: Cc1ccccc1S(=O)(=O)NC(C)(C)C(=O)NC1C2CC3CC1CC(C(N)=O)(C3)C2 (stereo not drawn) [compound 104, N-4-(2-(2-methylphenylsulfonamido)-2-methylpropanamido)adamantane-1-carboxyamide]
- IC50 (mouse 11β-HSD1): 0.046 µM
- binding to glucocorticoid receptor (glucocorticoid receptor): did not bind to glucocorticoid receptor
- IC50 (human 11β-HSD1): 0.014 µM

Molecule: CC(C)(NS(=O)(=O)c1cccc2cccnc12)C(=O)NC1C2CC3CC1CC(C(N)=O)(C3)C2 (stereo not drawn) [compound 105, N-4-(2-(quinoline-8-sulfonamido)-2-methylpropanamido)adamantane-1-carboxyamide]
- inhibition at 10 µM (human 11β-HSD2): ≤ 40%
- IC50 (mouse 11β-HSD1): 0.006 µM
- IC50 (human 11β-HSD1): 0.023 µM

Molecule: CC(C)(NS(=O)(=O)c1c(Cl)cccc1Cl)C(=O)NC1C2CC3CC1CC(C(N)=O)(C3)C2 (stereo not drawn) [compound 121]
- inhibition at 10 µM (human 11β-HSD2): ≤ 40%
- IC50 (mouse 11β-HSD1): 0.004 µM
- IC50 (human 11β-HSD1): 0.009 µM

Molecule: NC(=O)C12CC3CC(C1)C(NC(=O)C1(NS(=O)(=O)c4cccc5cccnc45)CCC1)C(C3)C2 (stereo not drawn) [compound 146, N-4-(1-(quinoline-8-sulfonamido)cyclobutanecarboxyamido)adamantane-1-carboxyamide]
- inhibition at 10 µM (human 11β-HSD2): ≤ 40%
- IC50 (mouse 11β-HSD1): 0.02 µM
- IC50 (human 11β-HSD1): 0.029 µM

Molecule: CC(C)(NS(=O)(=O)c1ccccc1Br)C(=O)NC1C2CC3CC1CC(C(=O)NC1CC1)(C3)C2 (stereo not drawn) [compound 229, 4-[2-(2-bromo-benzenesulfonylamino)-2-methyl-propionylamino]-adamantane-1-carboxylic acid cyclopropylamide]
- IC50 (mouse 11β-HSD1): > 2.5 µM
- IC50 (human 11β-HSD1): > 2.5 µM

Molecule: CC(C)(NS(=O)(=O)c1ccccc1Cl)C(=O)NC1C2CC3CC1CC(C(=O)NCCO)(C3)C2 (stereo not drawn) [compound 231, 4-[2-(2-chloro-benzenesulfonylamino)-2-methyl-propionylamino]-adamantane-1-carboxylic acid ethanolamide]
- IC50 (mouse 11β-HSD1): > 2.5 µM
- IC50 (human 11β-HSD1): > 2.5 µM

Molecule: O=C(NCCO)C12CC3CC(C1)C(NC(=O)C1(NS(=O)(=O)c4ccccc4Cl)CCC1)C(C3)C2 (stereo not drawn) [compound 232]
- IC50 (mouse 11β-HSD1): > 2.5 µM
- IC50 (human 11β-HSD1): > 2.5 µM

Molecule: CC(C)(NS(=O)(=O)c1ccccc1Cl)C(=O)NC1C2CC3CC1CC(C(=O)NC1CCCCC1)(C3)C2 (stereo not drawn) [compound 233, 4-[2-(2-chloro-benzenesulfonylamino)-2-methyl-propionylamino]-adamantane-1-carboxylic acid cyclohexylamide]
- IC50 (mouse 11β-HSD1): > 2.5 µM
- IC50 (human 11β-HSD1): > 2.5 µM

Molecule: CC(C)NC(=O)C12CC3CC(C1)C(NC(=O)C(C)(C)NS(=O)(=O)c1ccccc1Cl)C(C3)C2 (stereo not drawn) [compound 235, 4-[2-(2-chloro-benzenesulfonylamino)-2-methyl-propionylamino]-adamantane-1-carboxylic acid isopropylamide]
- IC50 (mouse 11β-HSD1): > 2.5 µM
- IC50 (human 11β-HSD1): > 2.5 µM

Molecule: CC(C)NC(=O)C12CC3CC(C1)C(NC(=O)C1(NS(=O)(=O)c4ccccc4Cl)CCC1)C(C3)C2 (stereo not drawn) [compound 236, 4-({1-[(2-chloro-benzenesulfonyl)-methyl-amino]-cyclobutanecarbonyl}-amino)-adamantane-1-carboxylic acid-isopropylamide]
- IC50 (mouse 11β-HSD1): > 2.5 µM
- IC50 (human 11β-HSD1): > 2.5 µM

Molecule: CNC(=O)C12CC3CC(C1)C(NC(=O)C(C)(C)NS(=O)(=O)c1ccccc1Cl)C(C3)C2 (stereo not drawn) [compound 237, 4-[2-(2-chloro-benzenesulfonylamino)-2-methyl-propionylamino]-adamantane-1-carboxylic acid methylamide]
- IC50 (mouse 11β-HSD1): 0.437 µM
- IC50 (human 11β-HSD1): 1.5 µM

Molecule: CNC(=O)C12CC3CC(C1)C(NC(=O)C1(NS(=O)(=O)c4ccccc4Cl)CCC1)C(C3)C2 (stereo not drawn) [compound 238]
- IC50 (mouse 11β-HSD1): > 2.5 µM
- IC50 (human 11β-HSD1): > 2.5 µM

Molecule: N-4-(2-methoxy-6-fluoro-N-ethylphenylsulfonamido)-2-methylpropanamido)adamantane-1-carboxyamide [compound 214]
- IC50 (mouse 11β-HSD1): 0.006 µM
- IC50 (human 11β-HSD1): 0.012 µM

From patent publication US9073830B2 (Hyundai Pharm Co., Ltd., priority 2011, dated 2015)
